Experimental findings from ChEMBL document CHEMBL4680302, “Biologic-like In Vivo Efficacy with Small Molecule Inhibitors of TNFα Identified Using Scaffold Hopping and Structure-Based Drug Design Approaches” (J Med Chem, 2020) are described below.

The target in data set [1] is Tumor necrosis factor (Homo sapiens, UniProt P01375). As to the kind of experiment: Inhibition of exogenous human TNFalpha in HEK-Blue-CD40L cells assessed as reduction in TNF-alpha-induced NFkappaB activation incubated for 18 hrs by quanti-blue based SEAP assay. Format: cell-based.
For data set [2], the target named is Cytochrome P450 2C9 (Homo sapiens, UniProt P11712). As to the kind of experiment: Inhibition of recombinant CYP2C9 (unknown origin). Format: ADME.
The nature of data set [3]: Metabolic stability in human liver microsomes assessed as half-life. Format: ADME, Microsome. A general note: Liver microsomes are vesicles of endoplasmic reticulum, rich in cytochrome P450 enzymes.
The target of data set [4] is Cytochrome P450 3A4 (Homo sapiens, UniProt P08684). As to the kind of experiment: Inhibition of recombinant CYP3A4 (unknown origin) in presence of BFC as substrate. Format: ADME.
Data set [5] in a line: Drug exposure in TNFalpha-induced C57BL/6J mouse at 25 mg/kg, po pretreated with compound prior to 1 hr of TNFalpha challenge and measured at 3 hrs post dose. Format: ADME, organism-based. The note with it: in vivo, read-out: Drug uptake.
The target of data set [6] is T1, Lymphotoxin-beta (Homo sapiens, UniProt Q06643).
T1 sequence (Q06643 whole entry): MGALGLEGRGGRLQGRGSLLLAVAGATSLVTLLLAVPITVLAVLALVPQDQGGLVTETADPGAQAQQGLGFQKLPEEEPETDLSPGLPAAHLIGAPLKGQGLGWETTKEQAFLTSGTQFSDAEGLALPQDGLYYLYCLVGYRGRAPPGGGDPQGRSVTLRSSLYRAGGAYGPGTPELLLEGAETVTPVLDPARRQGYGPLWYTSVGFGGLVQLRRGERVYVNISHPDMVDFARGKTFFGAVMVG
Nature of the data set: Inhibition of LTbeta (unknown origin).

Data set [7] concerns the target T2, Tumor necrosis factor receptor superfamily member 1A (Homo sapiens) (UniProt P19438).
T2 sequence (whole entry): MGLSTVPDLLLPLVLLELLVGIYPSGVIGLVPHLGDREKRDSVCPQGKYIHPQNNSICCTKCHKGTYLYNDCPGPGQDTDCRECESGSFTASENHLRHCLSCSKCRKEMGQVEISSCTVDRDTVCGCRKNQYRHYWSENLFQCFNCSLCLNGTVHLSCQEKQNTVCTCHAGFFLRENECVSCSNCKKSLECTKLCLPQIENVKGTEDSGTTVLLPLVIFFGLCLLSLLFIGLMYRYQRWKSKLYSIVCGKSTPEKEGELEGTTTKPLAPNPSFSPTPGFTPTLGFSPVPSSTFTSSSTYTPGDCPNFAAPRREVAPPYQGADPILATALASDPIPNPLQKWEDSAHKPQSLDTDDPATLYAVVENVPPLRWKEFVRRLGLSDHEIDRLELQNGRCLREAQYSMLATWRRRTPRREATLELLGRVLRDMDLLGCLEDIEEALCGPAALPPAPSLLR
Nature of the data set: Binding affinity to TNFR1 (unknown origin) assessed as sedimentation coefficient (S) value at 25 uM by ultracentrifugation analysis (reference value: 2.2).

Chain of Cytochrome P450 2C9 (P11712 whole entry): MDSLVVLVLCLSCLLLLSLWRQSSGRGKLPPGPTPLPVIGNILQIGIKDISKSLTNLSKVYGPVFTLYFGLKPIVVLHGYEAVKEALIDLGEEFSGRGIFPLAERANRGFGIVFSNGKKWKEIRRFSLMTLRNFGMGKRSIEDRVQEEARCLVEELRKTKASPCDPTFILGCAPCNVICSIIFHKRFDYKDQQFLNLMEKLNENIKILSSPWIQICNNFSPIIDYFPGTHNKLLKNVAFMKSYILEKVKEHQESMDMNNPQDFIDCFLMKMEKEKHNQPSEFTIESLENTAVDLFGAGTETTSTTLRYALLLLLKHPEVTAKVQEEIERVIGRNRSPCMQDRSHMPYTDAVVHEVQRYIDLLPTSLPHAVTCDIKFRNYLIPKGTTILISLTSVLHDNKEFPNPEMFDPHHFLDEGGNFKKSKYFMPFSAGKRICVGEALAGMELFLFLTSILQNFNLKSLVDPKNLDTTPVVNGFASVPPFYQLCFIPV
Chain of Tumor necrosis factor (P01375 whole entry): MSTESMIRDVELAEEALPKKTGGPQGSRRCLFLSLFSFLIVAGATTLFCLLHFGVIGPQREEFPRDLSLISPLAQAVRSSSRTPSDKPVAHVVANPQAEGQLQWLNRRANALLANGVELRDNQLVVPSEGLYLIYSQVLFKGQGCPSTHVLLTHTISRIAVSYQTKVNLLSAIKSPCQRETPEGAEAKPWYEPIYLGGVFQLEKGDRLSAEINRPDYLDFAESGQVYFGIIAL
Chain of Cytochrome P450 3A4 (P08684 whole entry): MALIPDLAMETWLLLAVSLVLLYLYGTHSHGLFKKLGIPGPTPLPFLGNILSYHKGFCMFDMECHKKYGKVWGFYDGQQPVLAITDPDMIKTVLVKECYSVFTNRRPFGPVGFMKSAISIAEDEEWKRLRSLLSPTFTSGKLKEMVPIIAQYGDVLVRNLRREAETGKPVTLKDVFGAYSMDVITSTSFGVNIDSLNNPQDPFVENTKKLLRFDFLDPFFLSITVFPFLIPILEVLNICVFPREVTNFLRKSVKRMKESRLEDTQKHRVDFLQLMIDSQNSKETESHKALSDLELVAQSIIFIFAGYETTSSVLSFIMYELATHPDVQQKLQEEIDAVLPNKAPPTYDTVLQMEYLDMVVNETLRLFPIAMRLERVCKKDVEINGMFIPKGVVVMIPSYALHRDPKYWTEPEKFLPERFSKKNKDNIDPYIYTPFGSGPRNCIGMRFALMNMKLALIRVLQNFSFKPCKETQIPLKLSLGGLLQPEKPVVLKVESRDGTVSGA

Take `Cc1nc2cc(F)c(-c3cnc(C(C)(C)O)nc3)nc2c(N[C@H](C)c2cc(C#N)ccc2F)c1Cl`: the IC50 in data set [1] is 27 nM; in data set [2], 2000 nM; in data set [4] it was over 20 µM; in data set [6], over 10 µM. In addition, the half-life in data set [3] was over 120 min. Besides, the concentration at 3 h in data set [5] stood at 1860 nM. The Activity index in data set [7] was found to be 2.2.

Usually IC50 stands for the point on the concentration scale where inhibition reaches its midpoint. A word on the half-life: it is the time in which the quantity being followed falls by half.
